Source: ChEMBL document CHEMBL3734705, “Synthesis and in vitro cytotoxicity of novel C-12 substituted-14-deoxy-andrographolide derivatives as potent anti-cancer agents” (2015)

Assays:
MDA-MB-231 [1] = assay: Cytotoxicity against human MDA-MB-231 cells assessed as growth level at 10 uM after 48 hrs by SRB assay; format: functional
NCI-H460 = assay: Cytotoxicity against human NCI-H460 cells assessed as growth inhibition at 10 uM after 48 hrs by SRB assay; format: functional; details: NCI-H460, 48 h, read-out: GI
[2] = Cytotoxicity against human HOP62 cells assessed as growth level at 10 uM after 48 hrs by SRB assay; format: functional, HOP-62
A549 [3] = assay: Cytotoxicity against human A549 cells assessed as growth level at 10 uM after 48 hrs by SRB assay; format: functional
[4] = Cytotoxicity against human HL-60(TB) cells assessed as growth inhibition at 10 uM after 48 hrs by SRB assay; format: functional; details: HL-60, 48 h, read-out: GI
[5] = Cytotoxicity against human HOP92 cells assessed as growth level at 10 uM after 48 hrs by SRB assay; format: functional, HOP-92
[6] = Cytotoxicity against human SF539 cells assessed as growth inhibition at 10 uM after 48 hrs by SRB assay; format: functional; details: SF-539, 48 h, read-out: GI
[7] = Cytotoxicity against human OVCAR8 cells assessed as growth level at 10 uM after 48 hrs by SRB assay; format: functional, OVCAR-8
[8] = Cytotoxicity against human COLO205 cells assessed as growth level at 10 uM after 48 hrs by SRB assay; format: functional, COLO 205
A549 [9] = assay: Cytotoxicity against human A549 cells assessed as growth inhibition at 10 uM after 48 hrs by SRB assay; format: functional; details: A549, 48 h, read-out: GI
ACHN = assay: Cytotoxicity against human ACHN cells assessed as growth level at 10 uM after 48 hrs by SRB assay; format: functional
T47D [10] = assay: Cytotoxicity against human T47D cells assessed as growth inhibition at 10 uM after 48 hrs by SRB assay; format: functional; details: read-out: GI
[11] = Cytotoxicity against human SNB75 cells assessed as growth inhibition at 10 uM after 48 hrs by SRB assay; format: functional; details: SNB-75, 48 h, read-out: GI
MDA-MB-231 [12] = assay: Cytotoxicity against human MDA-MB-231 cells assessed as growth inhibition at 10 uM after 48 hrs by SRB assay; format: functional; details: MDA-MB-231, 48 h, read-out: GI
NCI-H23 = assay: Cytotoxicity against human NCI-H23 cells assessed as growth inhibition at 10 uM after 48 hrs by SRB assay; format: functional; details: NCI-H23, 48 h, read-out: GI
[13] = Cytotoxicity against human OVCAR4 cells assessed as growth inhibition at 10 uM after 48 hrs by SRB assay; format: functional; details: OVCAR-4, 48 h, read-out: GI
[14] = Cytotoxicity against human DU145 cells assessed as growth inhibition at 10 uM after 48 hrs by SRB assay; format: functional; details: DU-145, 48 h, read-out: GI
[15] = Cytotoxicity against human MOLT4 cells assessed as growth level at 10 uM after 48 hrs by SRB assay; format: functional, MOLT-4
EKVX [16] = assay: Cytotoxicity against human EKVX cells assessed as growth level at 10 uM after 48 hrs by SRB assay; format: functional
[17] = Cytotoxicity against human UO31 cells assessed as growth level at 10 uM after 48 hrs by SRB assay; format: functional, UO-31
[18] = Cytotoxicity against human SF268 cells assessed as growth inhibition at 10 uM after 48 hrs by SRB assay; format: functional; details: SF-268, 48 h, read-out: GI
[19] = Cytotoxicity against human HOP92 cells assessed as growth inhibition at 10 uM after 48 hrs by SRB assay; format: functional; details: HOP-92, 48 h, read-out: GI
T47D [20] = assay: Cytotoxicity against human T47D cells assessed as growth level at 10 uM after 48 hrs by SRB assay; format: functional
[21] = Cytotoxicity against human OVCAR3 cells assessed as growth inhibition at 10 uM after 48 hrs by SRB assay; format: functional; details: OVCAR-3, 48 h, read-out: GI
[22] = Cytotoxicity against human Caki1 cells assessed as growth level at 10 uM after 48 hrs by SRB assay; format: functional, CAKI-1
[23] = Cytotoxicity against human HOP62 cells assessed as growth inhibition at 10 uM after 48 hrs by SRB assay; format: functional; details: HOP-62, 48 h, read-out: GI
SR [24] = assay: Cytotoxicity against human SR cells assessed as growth inhibition at 10 uM after 48 hrs by SRB assay; format: functional; details: read-out: GI
[25] = Cytotoxicity against human HCC2998 cells assessed as growth level at 10 uM after 48 hrs by SRB assay; format: functional, HCC 2998
SN12C = assay: Cytotoxicity against human SN12C cells assessed as growth inhibition at 10 uM after 48 hrs by SRB assay; format: functional; details: read-out: GI
[26] = Cytotoxicity against human Hs578T cells assessed as growth level at 10 uM after 48 hrs by SRB assay; format: functional, Hs-578T
[27] = Cytotoxicity against human UO31 cells assessed as growth inhibition at 10 uM after 48 hrs by SRB assay; format: functional; details: UO-31, 48 h, read-out: GI
[28] = Cytotoxicity against human NCI-ADR-RES cells assessed as growth inhibition at 10 uM after 48 hrs by SRB assay; format: functional; details: read-out: GI
[29] = Cytotoxicity against human Caki1 cells assessed as growth inhibition at 10 uM after 48 hrs by SRB assay; format: functional; details: CAKI-1, 48 h, read-out: GI
[30] = Cytotoxicity against human SNB19 cells assessed as growth level at 10 uM after 48 hrs by SRB assay; format: functional, SNB-19
[31] = Cytotoxicity against human SKOV3 cells assessed as growth inhibition at 10 uM after 48 hrs by SRB assay; format: functional; details: SK-OV-3, 48 h, read-out: GI
[32] = Cytotoxicity against human PC3 cells assessed as growth level at 10 uM after 48 hrs by SRB assay; format: functional, PC-3
NCI-H322M = assay: Cytotoxicity against human NCI-H322M cells assessed as growth level at 10 uM after 48 hrs by SRB assay; format: functional
KM12 = assay: Cytotoxicity against human KM12 cells assessed as growth level at 10 uM after 48 hrs by SRB assay; format: functional
EKVX [33] = assay: Cytotoxicity against human EKVX cells assessed as growth inhibition at 10 uM after 48 hrs by SRB assay; format: functional; details: read-out: GI
[34] = Cytotoxicity against human Hs578T cells assessed as growth inhibition at 10 uM after 48 hrs by SRB assay; format: functional; details: Hs-578T, read-out: GI
SR [35] = assay: Cytotoxicity against human SR cells assessed as growth level at 10 uM after 48 hrs by SRB assay; format: functional
HT-29 = assay: Cytotoxicity against human HT-29 cells assessed as growth level at 10 uM after 48 hrs by SRB assay; format: functional
SK-MEL-5 = assay: Cytotoxicity against human SK-MEL-5 cells assessed as growth level at 10 uM after 48 hrs by SRB assay; format: functional

SMILES: C=C1CC[C@@H]2[C@](C)(COC(C)=O)[C@H](OC(C)=O)CC[C@@]2(C)[C@@H]1CC(NCc1ccccc1)C1=CCOC1=O (mixture of isomers)
- Activity (MDA-MB-231 [1]): 64.69%
- inhibition of growth at 10 µM (NCI-H460): 51.6%
- Activity [2]: 89.01%
- Activity (A549 [3]): 49.21%
- inhibition of growth at 10 µM [4]: 9.93%
- Activity [5]: 41.66%
- inhibition of growth at 10 µM [6]: 20.5%
- Activity [7]: 28.22%
- Activity [8]: 45.59%
- inhibition of growth at 10 µM (A549 [9]): 50.8%
- Activity (ACHN): 46.39%
- inhibition of growth at 10 µM (T47D [10]): 85.8%
- inhibition of growth at 10 µM [11]: 23.1%
- inhibition of growth at 10 µM (MDA-MB-231 [12]): 35.3%
- inhibition of growth at 10 µM (NCI-H23): 42.6%
- inhibition of growth at 10 µM [13]: 64.1%
- inhibition of growth at 10 µM [14]: 32.8%
- Activity [15]: -3.86%
- Activity (EKVX [16]): 53.91%
- Activity [17]: 29.11%
- inhibition of growth at 10 µM [18]: 37.9%
- inhibition of growth at 10 µM [19]: 58.3%
- Activity (T47D [20]): 14.23%
- inhibition of growth at 10 µM [21]: 68.2%
- Activity [22]: 49.62%
- inhibition of growth at 10 µM [23]: 11%
- inhibition of growth at 10 µM (SR [24]): 79.1%
- Activity [25]: 93.69%
- inhibition of growth at 10 µM (SN12C): 41.8%
- Activity [26]: 86.43%
- inhibition of growth at 10 µM [27]: 70.9%
- inhibition of growth at 10 µM [28]: 76.5%
- inhibition of growth at 10 µM [29]: 50.4%
- Activity [30]: 68.18%
- inhibition of growth at 10 µM [31]: 20.8%
- Activity [32]: 10.07%
- Activity (NCI-H322M): 77.01%
- Activity (KM12): 39.08%
- inhibition of growth at 10 µM (EKVX [33]): 46.1%
- inhibition of growth at 10 µM [34]: 13.6%
- Activity (SR [35]): 20.89%

SMILES: C=C1CC[C@@H]2[C@](C)(COC(C)=O)[C@H](OC(C)=O)CC[C@@]2(C)[C@@H]1CC(Nc1ccc(S(=O)(=O)NC(C)=O)cc1)C1=CCOC1=O (mixture of isomers)
- Activity (MDA-MB-231 [1]): -38.71%
- Activity [2]: 81.97%
- Activity (A549 [3]): 27.95%
- Activity [5]: 20.95%
- Activity [7]: -18.21%
- Activity [8]: -32.73%
- Activity (ACHN): -63.23%
- Activity [15]: 0.12%
- Activity (EKVX [16]): 57.45%
- Activity [17]: -58.46%
- Activity (T47D [20]): -3.67%
- Activity [22]: 30.25%
- Activity (HT-29): -69.92%
- Activity [25]: -12.74%
- Activity [26]: 32.45%
- Activity [30]: 23.04%
- Activity [32]: 0.69%
- Activity (NCI-H322M): 35.29%
- Activity (KM12): -34%
- Activity (SK-MEL-5): 7.36%
- Activity (SR [35]): 2.08%
